In patent US11560400B2, “Salts of diphosphate phosphoramidate of nucleosides as anticancer compounds” (NuCana plc, priority 2017, dated 2023):
Structures can show the parent of a compound that is named as a salt. Where two headings read alike, the source gives them in different places.

Legend:
[1] = tested on: HT29; assay: CellTiterGlo cell viability assay, HT29; type: cell-based; conditions: HT29, 72 h; for EC50: read-out: Ab EC50; for inhibition at 198 µM: read-out: Top Inhibit
Procedure: (§1) A subset of compounds of the invention were assayed for their cytotoxic activity in an array of different solid tumours and haematological malignancies using the following assay.
(§2) In vitro viability assay were performed to assess the effects of compounds on cell viability in selected cell lines over 72 h using the CellTiterGlo (CTG, Promega-G7573) assay. The tests were performed in duplicates with treatment of compounds at 9 points, 3.16 folds titration in 96 well plates over ˜72 h. The compound starting concentrations were 198 μM. Cell viability assay using CellTiterGlo in 96-well plate were performed. Compound treatment 72 h, standard growth conditions, duplicates. Compounds were dissolved to 40 mM with thawed […]. Compounds were serially diluted at 3.16 fold in thawed DMSO, and warmed to 37° C. before being dissolved in media (2 μL+200 μL). After compounds were dissolved in media, media containing compounds were warmed to 37° C. in incubator and then compounds in media were added to cell plates (50 μL+50 μL) in duplicates. The compounds' final concentrations were from 198 μM to 19.8 nM. All compound solubilities were checked and recorded again, then the plates were transferred to CO2 tissue culture incubator immediately and incubated for 3 days. DMSO final concentration is 0.5%. The parent nucleoside in each case was tested as a comparator, as was an exemplary ProTide. The drugs of the ProTide class that were tested were as follows:
(§3) The following cell lines were tested and are referred to in the Table 1 below:
(§4) In Tables 2, 3 and 4, ‘Ab EC50’ refers to the absolute EC50 and ‘Top inhibit’ refers to the percentage inhibition achieved at the highest concentration tested.

[2] = tested on: HepG2; assay: CellTiterGlo cell viability assay, HepG2; type: cell-based; conditions: HepG2, 72 h; for EC50: read-out: Ab EC50; for inhibition at 198 µM: read-out: Top Inhibit
Procedure: as §1, §2, §3, §4

[3] = tested on: OVCAR 3; assay: CellTiterGlo cell viability assay, OVCAR 3; type: cell-based; conditions: for inhibition at 198 µM: OVCAR-3, 72 h, read-out: Top Inhibit; for EC50: read-out: Ab EC50
Procedure: as §1, §2, §3, §4

[4] = tested on: MCF-7; assay: CellTiterGlo cell viability assay, MCF-7; type: cell-based; conditions: MCF-7, 72 h, percentage inhibition at the highest concentration tested; for inhibition at 198 µM: Homo sapiens, MCF7, 72 h, read-out: Top Inhibit
Procedure: as §1, §2, §3, §4

[5] = tested on: CCRF-CEM; assay: CellTiterGlo cell viability assay, CCRF-CEM; type: cell-based; conditions: 72 h; for EC50: read-out: Ab EC50; for inhibition at 198 µM: read-out: Top Inh
Procedure: as §1, §2, §3, §4

[6] = tested on: MOLT-4; assay: CellTiterGlo cell viability assay, MOLT-4; type: cell-based; conditions: MOLT-4, 72 h; for inhibition at 198 µM: read-out: Top Inh; for EC50: read-out: Ab EC50
Procedure: as §1, §2, §3, §4

[7] = tested on: K562; assay: CellTiterGlo cell viability assay, K562; type: cell-based; conditions: for inhibition at 198 µM: read-out: Top Inh; for EC50: read-out: Ab EC50
Procedure: as §1, §2, §3, §4

[8] = tested on: HL-60; assay: CellTiterGlo cell viability assay, HL-60; type: cell-based; conditions: HL-60, 72 h; for EC50: read-out: Ab EC50; for inhibition at 198 µM: read-out: Top Inh
Procedure: as §1, §2, §3, §4

[9] = tested on: RL; assay: CellTiterGlo cell viability assay, RL; type: cell-based; conditions: 72 h; for inhibition at 198 µM: read-out: Top Inh
Procedure: as §1, §2, §3, §4

[10] = tested on: RPMI-8226; assay: CellTiterGlo cell viability assay, RPMI-8226; type: cell-based, Human; conditions: RPMI-8226, 72 h; for EC50: read-out: Ab EC50; for inhibition at 198 µM: read-out: Top Inh
Procedure: as §1, §2, §3, §4

[11] = tested on: KG-1; assay: CellTiterGlo cell viability assay, KG-1; type: cell-based; conditions: KG-1, 72 h; for EC50: read-out: Ab EC50; for inhibition at 198 µM: read-out: Top Inhibit
Procedure: as §1, §2, §3, §4

[12] = Homo sapiens, HT-29, 72 h, percentage inhibition at the highest concentration tested
[13] = Homo sapiens, absolute EC50, numeric values
[14] = Homo sapiens, percentage inhibition at the highest concentration tested
[15] = Homo sapiens, K562, 72 h, percentage inhibition at the highest concentration tested
[16] = Homo sapiens, HT-29, 72 h, Table 4 classes
[17] = Homo sapiens, OVCAR 3, 72 h, Table 4 classes
[18] = Homo sapiens, K562, K 562, 72 h, Table 4 classes
[19] = percentage inhibition at the highest concentration tested

Compound | inhibition at 198 µM [1, 12] | inhibition at 198 µM [2, 14] | inhibition at 198 µM [3, 14] | inhibition at 198 µM [4] | inhibition at 198 µM [5, 14] | inhibition at 198 µM [6, 14] | inhibition at 198 µM [7, 15] | inhibition at 198 µM [8, 14] | inhibition at 198 µM [9, 14] | inhibition at 198 µM [10, 14] | inhibition at 198 µM [11, 14] | EC50 [1, 16] | EC50 [3, 17] | EC50 ([5]; Homo sapiens, Table 4 classes) | EC50 ([6]; Homo sapiens, Table 4 classes) | EC50 [7, 18] | EC50 ([8]; Homo sapiens, Table 4 classes) | EC50 ([10]; Homo sapiens, Table 4 classes) | EC50 ([11]; Homo sapiens, Table 4 classes) | EC50 ([2]; Homo sapiens, Table 4 classes) | other results
CC(C)OC(=O)[C@H](C)NP(=O)(Oc1ccccc1)OP(=O)(O)OC[C@H]1O[C@@H](n2cnc3c(N)nc(Cl)nc32)[C@H](F)C1O (stereo partly drawn) [Example 15, 2-Chloro-9-(2′-Deoxy-2′-fluoro-β-D-arabinofuranosyl)adenine-5′-O-[1-phenyl(isopropoxy-L-alaninyl)] Diphosphate Triethylammonium Salt] | 69% | 51% | 41% | 47% | 99% | 90% | 36% | 96% | 49% | 80% | 92% | – | – | – | – | – | – | – | – | – | EC50 ([1]; Homo sapiens, HT-29, 72 h, absolute EC50, numeric values): 330 nM; EC50 [2, 13]: 370 nM; EC50 ([3]; Homo sapiens, OVCAR 3, 72 h, absolute EC50, numeric values): > 198000 nM; EC50 [5, 13]: < 20 nM; EC50 [6, 13]: 30 nM; EC50 ([7]; Homo sapiens, K562, 72 h, absolute EC50, numeric values): > 198000 nM; EC50 [8, 13]: 60 nM; EC50 [10, 13]: 30300 nM; EC50 [11, 13]: 90 nM
CCOC(=O)[C@@H](NP(=O)(Oc1ccccc1)OP(=O)(O)OC[C@H]1O[C@@H](n2cnc3c(N)nc(Cl)nc32)C(F)[C@H]1O)C(C)CC (stereo partly drawn) [Example 25, 2-Chloro-9-(2′-Deoxy-2′-fluoro-β-D-arabinofuranosyl)adenine-5′-O-[l-phenyl(ethoxy-L-isoleucinyl)] Diphosphate Triethylammonium Salt] | 67% | 49% | 24% | 43% | 99% | 86% | 33% | 95% | 44% | 83% | 91% | 200 to 1000 nM | > 10000 nM | < 200 nM | < 200 nM | > 10000 nM | < 200 nM | 1000 to 5000 nM | < 200 nM | – | –
C[C@H](NP(=O)(Oc1ccccc1)OP(=O)(O)OC[C@H]1O[C@@H](n2cnc3c(N)nc(Cl)nc32)[C@H](F)C1O)C(=O)OCC(C)(C)C (stereo partly drawn) [Example 9, 2-Chloro-9-(2′-Deoxy-2′-fluoro-β-D-arabinofuranosyl)adenine-5′-O-[phenyl(neopentoxy-L-alaninyl)] Diphosphate Triethylammonium Salt] | 70% | 53% | 43% | 45% | 99% | 92% | 40% | 96% | 53% | 81% | 92% | 200 to 1000 nM | > 10000 nM | < 200 nM | < 200 nM | > 10000 nM | < 200 nM | > 10000 nM | < 200 nM | 200 to 1000 nM | EC50 ([9]; Homo sapiens, Table 4 classes, read-out: Ab EC50): 200 to 1000 nM
CC(C)[C@H](NP(=O)(Oc1ccccc1)OP(=O)(O)OC[C@H]1O[C@@H](n2cnc3c(N)nc(Cl)nc32)[C@@H](F)[C@@H]1O)C(=O)OC1CCCCC1.CCN(CC)CC (stereo partly drawn) [Example 12, 2-Chloro-9-(2′-Deoxy-2′-fluoro-β-D-arabinofuranosyl)adenine-5′-O-[phenyl(cyclohexoxy-L-valinyl)] Diphosphate Triethylammonium Salt] | – | – | – | – | – | – | – | – | – | – | – | – | – | – | – | – | – | – | – | – | EC50 ([1]; absolute EC50, numeric values): 370 nM; Top Inhibit [1, 19]: 71%; EC50 ([2]; absolute EC50, numeric values): 290 nM; Top Inhibit [2, 19]: 54%; EC50 ([3]; OVCAR 3, 72 h, absolute EC50, numeric values): > 198000 nM; Top Inhibit ([3]; OVCAR 3, 72 h, percentage inhibition at the highest concentration tested): 41%; Top Inhibit [4]: 44%; EC50 ([5]; absolute EC50, numeric values): < 20 nM; Top Inh [5, 19]: 99%; EC50 ([6]; absolute EC50, numeric values): 40 nM; Top Inh [6, 19]: 91%; EC50 ([7]; K562, 72 h, absolute EC50, numeric values): > 198000 nM; Top Inh ([7]; K562, 72 h, percentage inhibition at the highest concentration tested): 40%; EC50 ([8]; absolute EC50, numeric values): 70 nM; Top Inh [8, 19]: 96%; Top Inh [9, 19]: 47%; EC50 ([10]; absolute EC50, numeric values): 39600 nM; Top Inh [10, 19]: 79%; EC50 ([11]; absolute EC50, numeric values): 140 nM; Top Inhibit [11, 19]: 91%
CCCCCCOC(=O)[C@H](C)NP(=O)(Oc1ccccc1)OP(=O)(O)OC[C@H]1O[C@@H](n2cnc3c(N)nc(Cl)nc32)[C@H](F)C1O (stereo partly drawn) [Example 18, 2-Chloro-9-(2′-Deoxy-2′-fluoro-β-D-arabinofuranosyl)adenine-5′-O-[1-phenyl(hexoxy-L-alaninyl)] Diphosphate Triethylammonium Salt] | 66% | 53% | 47% | 44% | 99% | 88% | 40% | 96% | 48% | 84% | 91% | 200 to 1000 nM | > 10000 nM | < 200 nM | < 200 nM | > 10000 nM | < 200 nM | > 10000 nM | < 200 nM | 200 to 1000 nM | –
COC(=O)[C@H](CCSC)NP(=O)(Oc1ccccc1)OP(=O)(O)OC[C@H]1O[C@@H](n2cnc3c(N)nc(Cl)nc32)C(F)[C@H]1O (stereo partly drawn) [Example 24, 2-Chloro-9-(2′-Deoxy-2′-fluoro-β-D-arabinofuranosyl)adenine-5′-O-[l-phenyl(methoxy-L-metioninyl)] Diphosphate Triethylammonium Salt] | 70% | 54% | 67% | 49% | 99% | 88% | 49% | 95% | 39% | 86% | 91% | 200 to 1000 nM | > 10000 nM | < 200 nM | < 200 nM | > 10000 nM | < 200 nM | > 10000 nM | < 200 nM | 1000 to 5000 nM | –
